Reference: PubChem BioAssay (NCI)
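All cell lines were grown in 96-well plates and treated with compound for 48 hours. The concentration for 50% growth inhibition is given as GI50. TGI: concentration producing complete growth inhibition.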

Columns and labels:
Experiment in all cases: DTP human tumour cell line panel, 48 h
NCI-H226 lung = system: NCI-H226 lung
A498 renal = system: A498 renal
UACC-62 melanoma = system: UACC-62 melanoma
T-47D breast = system: T-47D breast
HCT-116 colon = system: HCT-116 colon
SK-MEL-2 melanoma = system: SK-MEL-2 melanoma
SNB-19 CNS = system: SNB-19 CNS
OVCAR-5 ovarian = system: OVCAR-5 ovarian
OVCAR-8 ovarian = system: OVCAR-8 ovarian
HT29 colon = system: HT29 colon
KM12 colon = system: KM12 colon
U251 CNS = system: U251 CNS
UO-31 renal = system: UO-31 renal
NCI-H522 lung = system: NCI-H522 lung
PC-3 prostate = system: PC-3 prostate
786-0 renal = system: 786-0 renal
OVCAR-4 ovarian = system: OVCAR-4 ovarian
MDA-MB-231 breast = system: MDA-MB-231 breast
MDA-MB-435 = system: MDA-MB-435
BT-549 breast = system: BT-549 breast
HS 578T breast = system: HS 578T breast
SK-OV-3 ovarian = system: SK-OV-3 ovarian
IGROV1 ovarian = system: IGROV1 ovarian
MALME-3M melanoma = system: MALME-3M melanoma
K-562 leukemia = system: K-562 leukemia
MOLT-4 leukemia = system: MOLT-4 leukemia
EKVX NSCLC = system: EKVX NSCLC
SK-MEL-28 melanoma = system: SK-MEL-28 melanoma
SF-539 CNS = system: SF-539 CNS
ACHN renal = system: ACHN renal
HL-60(TB) leukemia = system: HL-60(TB) leukemia
RXF 393 renal = system: RXF 393 renal
HOP-62 NSCLC = system: HOP-62 NSCLC
HCT-15 colon = system: HCT-15 colon
CAKI-1 renal = system: CAKI-1 renal
OVCAR-3 ovarian = system: OVCAR-3 ovarian
NCI/ADR-RES ovarian = system: NCI/ADR-RES ovarian
SF-268 CNS = system: SF-268 CNS
CCRF-CEM leukemia = system: CCRF-CEM leukemia
UACC-257 melanoma = system: UACC-257 melanoma
SR leukemia = system: SR leukemia
SF-295 CNS = system: SF-295 CNS
LOX IMVI melanoma = system: LOX IMVI melanoma
COLO 205 colon = system: COLO 205 colon
A549 NSCLC = system: A549 NSCLC
SN12C renal = system: SN12C renal
SW-620 colon = system: SW-620 colon
DU-145 prostate = system: DU-145 prostate
HCC-2998 colon = system: HCC-2998 colon
M14 melanoma = system: M14 melanoma
TK-10 renal = system: TK-10 renal
MCF7 breast = system: MCF7 breast
SNB-75 CNS = system: SNB-75 CNS
RPMI-8226 leukemia = system: RPMI-8226 leukemia
NCI-H23 lung = system: NCI-H23 lung

CN(c1ccc(Br)cc1)S(=O)(=O)c1ccc(-c2cnc(C3CC3)o2)cc1
GI50 (NCI-H226 lung): 0.284 µM
TGI (NCI-H226 lung): 7.52 µM
GI50 (A498 renal): 0.05 µM
TGI (A498 renal): 0.7 µM
GI50 (UACC-62 melanoma): 0.0658 µM
TGI (UACC-62 melanoma): > 100 µM
GI50 (T-47D breast): 0.839 µM
TGI (T-47D breast): > 100 µM
GI50 (HCT-116 colon): 0.129 µM
TGI (HCT-116 colon): > 100 µM
GI50 (SK-MEL-2 melanoma): 1.34 µM
TGI (SK-MEL-2 melanoma): > 100 µM
GI50 (SNB-19 CNS): 0.271 µM
TGI (SNB-19 CNS): > 100 µM
GI50 (OVCAR-5 ovarian): 0.524 µM
TGI (OVCAR-5 ovarian): > 100 µM
GI50 (OVCAR-8 ovarian): 0.597 µM
TGI (OVCAR-8 ovarian): > 100 µM
GI50 (HT29 colon): 0.21 µM
TGI (HT29 colon): > 100 µM
GI50 (KM12 colon): 0.225 µM
TGI (KM12 colon): > 100 µM
GI50 (U251 CNS): 0.324 µM
TGI (U251 CNS): > 100 µM
GI50 (UO-31 renal): 0.88 µM
TGI (UO-31 renal): > 100 µM
GI50 (NCI-H522 lung): 0.374 µM
TGI (NCI-H522 lung): > 100 µM
GI50 (PC-3 prostate): 0.121 µM
TGI (PC-3 prostate): > 100 µM
GI50 (786-0 renal): 0.397 µM
TGI (786-0 renal): > 100 µM
GI50 (OVCAR-4 ovarian): 0.774 µM
TGI (OVCAR-4 ovarian): > 100 µM
GI50 (MDA-MB-231 breast): 0.48 µM
TGI (MDA-MB-231 breast): > 27.4 µM
GI50 (MDA-MB-435): 0.0309 µM
TGI (MDA-MB-435): 0.111 µM
GI50 (BT-549 breast): 2.96 µM
TGI (BT-549 breast): > 100 µM
GI50 (HS 578T breast): 0.279 µM
TGI (HS 578T breast): > 100 µM
GI50 (SK-OV-3 ovarian): 5.33 µM
TGI (SK-OV-3 ovarian): > 100 µM
GI50 (IGROV1 ovarian): 0.253 µM
TGI (IGROV1 ovarian): > 100 µM
GI50 (MALME-3M melanoma): 3.84 µM
TGI (MALME-3M melanoma): > 100 µM
GI50 (K-562 leukemia): 0.0419 µM
TGI (K-562 leukemia): > 100 µM
GI50 (MOLT-4 leukemia): 0.286 µM
TGI (MOLT-4 leukemia): > 100 µM
GI50 (EKVX NSCLC): 0.454 µM
TGI (EKVX NSCLC): > 100 µM
GI50 (SK-MEL-28 melanoma): 9.45 µM
TGI (SK-MEL-28 melanoma): > 100 µM
GI50 (SF-539 CNS): 0.142 µM
TGI (SF-539 CNS): 2.7 µM
GI50 (ACHN renal): 0.677 µM
TGI (ACHN renal): > 100 µM
GI50 (HL-60(TB) leukemia): 0.0326 µM
TGI (HL-60(TB) leukemia): 0.142 µM
GI50 (RXF 393 renal): 0.0859 µM
TGI (RXF 393 renal): 0.403 µM
GI50 (HOP-62 NSCLC): 0.412 µM
TGI (HOP-62 NSCLC): > 100 µM
GI50 (HCT-15 colon): 0.0603 µM
TGI (HCT-15 colon): > 100 µM
GI50 (CAKI-1 renal): 0.0846 µM
TGI (CAKI-1 renal): > 100 µM
GI50 (OVCAR-3 ovarian): 0.109 µM
TGI (OVCAR-3 ovarian): 5.27 µM
GI50 (NCI/ADR-RES ovarian): 0.0732 µM
TGI (NCI/ADR-RES ovarian): > 40.7 µM
GI50 (SF-268 CNS): 1.16 µM
TGI (SF-268 CNS): > 100 µM
GI50 (CCRF-CEM leukemia): 0.0862 µM
TGI (CCRF-CEM leukemia): > 100 µM
GI50 (UACC-257 melanoma): > 53.3 µM
TGI (UACC-257 melanoma): > 100 µM
GI50 (SR leukemia): 0.0485 µM
TGI (SR leukemia): > 100 µM
GI50 (SF-295 CNS): 0.0712 µM
TGI (SF-295 CNS): > 100 µM
GI50 (LOX IMVI melanoma): 0.0939 µM
TGI (LOX IMVI melanoma): > 100 µM
GI50 (COLO 205 colon): 0.37 µM
TGI (COLO 205 colon): > 100 µM
GI50 (A549 NSCLC): 0.321 µM
TGI (A549 NSCLC): > 100 µM
GI50 (SN12C renal): 1.03 µM
TGI (SN12C renal): > 100 µM
GI50 (SW-620 colon): 0.0827 µM
TGI (SW-620 colon): > 100 µM
GI50 (DU-145 prostate): 0.375 µM
TGI (DU-145 prostate): > 100 µM
GI50 (HCC-2998 colon): 0.299 µM
TGI (HCC-2998 colon): > 100 µM
GI50 (M14 melanoma): 0.156 µM
TGI (M14 melanoma): > 100 µM
GI50 (TK-10 renal): > 64.4 µM
TGI (TK-10 renal): > 100 µM
GI50 (MCF7 breast): 0.0451 µM
TGI (MCF7 breast): > 100 µM
GI50 (SNB-75 CNS): 0.114 µM
TGI (SNB-75 CNS): > 52.1 µM
GI50 (RPMI-8226 leukemia): 0.209 µM
TGI (RPMI-8226 leukemia): 2.47 µM
GI50 (NCI-H23 lung): 0.393 µM
TGI (NCI-H23 lung): > 100 µM
